US20250288704A1, “CXCR4-LIGANDS FOR DIAGNOSTIC AND THERAPEUTIC USE AND PRECURSORS THEREOF” (priority 2021, published 2025)
Non-standard residues stand in square brackets, D forms with d. Residues, ends and D or L forms follow the SMILES beside them. Groups on a side chain read outwards from the residue. *: point of attachment. DOTA = O=C(O)CN1CCN(CC(=O)O)CCN(CC(=O)*)CCN(CC(=O)O)CC1; 2Nal = N[C@@H](Cc1ccc2ccccc2c1)C(=O)O; dNMeOrn = CN[C@H](CCCN)C(=O)O; 4Abz = Nc1ccc(C(=O)O)cc1; dDap = NC[C@@H](N)C(=O)O

What was measured:
[1] = tested on: CXCR4-expressing Chem_1 cells; assay: Determination of internalization, dual tracer with 125I-Fc-131; format: cell-based; settings: of total cellular activity
How it was run: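 Receptor blockade used AMD3100 (1 mM stock) versus medium-treated wells, triplicate per time point, in Chem_1 cells cultured at 37 °C in DMEM-F12/10% FBS. Activity of supernatant, surface-bound and internalized (1 M NaOH) fractions measured by γ-counter, corrected for non-specific uptake and normalised to standard ligand.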

[2] = tested on: Jurkat tumor-bearing CB-17 SCID mice; assay: Biodistribution in Jurkat tumor-bearing CB-17 SCID mice; format: in vivo; parameters: tissue to tissue ratio at 1 h / tissue to tissue ratio / tissue to tissue ratio at 48 h: reference not given here
How it was run: (§1)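 Radioligand (125I, 177Lu, 99mTc, 18F or 68Ga label; roughly 0.5-20 MBq, 0.02-0.20 nmol) was injected intravenously via tail vein. Hosts were CB17-SCID mice with subcutaneous Jurkat tumors of 5-8 mm, 4-10 weeks post-inoculation. Dissected organs were weighed and counted in a γ-counter.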

[3] = as above; format: in vivo; parameters: tissue to tissue ratio at 1 h / tissue to tissue ratio / tissue to tissue ratio at 48 h: reference not given here; settings: CB-17 SCID, mouse, in vivo, iv, total radioactivity
How it was run: as §1

In the case of `CC[C@H](C)[C@@H]([C@@H](CC(=O)N1CCC[C@H]1[C@H](OC)[C@@H](C)C(=O)N[C@H](C)C(O)c1ccccc1)OC)N(C)C(=O)[C@@H](NC(=O)[C@H](C(C)C)N(C)C(=O)OCc1ccc(NC(=O)[C@H](CCCNC(N)=O)NC(=O)[C@@H](NC(=O)CCCCCN2C(=O)CC(SCC[C@@H](N)C(=O)N[C@H](CCCNC(=N)N)C(=O)N[C@H](C)C(=O)Nc3ccc(C(=O)NCCC[C@@H]4C(=O)N[C@@H](CCCNC(=N)N)C(=O)N[C@@H](Cc5ccc6ccccc6c5)C(=O)NCC(=O)N[C@H](Cc5ccc(O)cc5)C(=O)N4C)cc3)C2=O)C(C)C)cc1)C(C)C` (stereo partly drawn) [^125I-CXCR4-MMAE −2], the “Cell-bound [%]” value ([1]; 10 min) is reported as 1.56 ± 0.78%, the “Internalized [%]” value ([1]; 10 min) is reported as 2.55 ± 0.34% and the “Cell-bound [%]” value ([1]; 30 min) is reported as 2.09 ± 0.64%. For the same compound, the “Internalized [%]” value ([1]; 30 min) was 7.78 ± 0.58%, the “Cell-bound [%]” value ([1]; 60 min) was 0.73 ± 0.54% and the “Internalized [%]” value ([1]; 60 min) was 14.6 ± 0.89%. For the same compound, the “Cell-bound [%]” value ([1]; 120 min) was 0.27 ± 0.35%, the “Internalized [%]” value ([1]; 120 min) was 27.9 ± 1.14% and the “% iD/g Blood” value ([2]; Blood, 1 h p.i., Jurkat xenograft, CB-17 SCID female mice) was 2.28 % iD/g. The “% iD/g Bone” value ([2]; Bone, 1 h p.i., Jurkat xenograft, CB-17 SCID female mice) was 0.80 % iD/g, the “% iD/g Heart” value ([2]; Heart, 1 h p.i., Jurkat xenograft, CB-17 SCID female mice) was 1.31 % iD/g and the “% iD/g Intestine” value ([2]; Intestine, 1 h p.i., Jurkat xenograft, CB-17 SCID female mice) was 1.13 % iD/g. The “% iD/g Kidney” value ([2]; Kidney, 1 h p.i., Jurkat xenograft, CB-17 SCID female mice) was 18.3 % iD/g, the “% iD/g Liver” value ([2]; Liver, 1 h p.i., Jurkat xenograft, CB-17 SCID female mice) was 27.8 % iD/g and the “% iD/g Lung” value ([2]; Lung, 1 h p.i., Jurkat xenograft, CB-17 SCID female mice) was 3.67 % iD/g. The “% iD/g Muscle” value ([2]; Muscle, 1 h p.i., Jurkat xenograft, CB-17 SCID female mice) was 0.33 % iD/g, the “% iD/g Pancreas” value ([2]; Pancreas, 1 h p.i., Jurkat xenograft, CB-17 SCID female mice) was 0.80 % iD/g and the “% iD/g Spleen” value ([2]; Spleen, 1 h p.i., Jurkat xenograft, CB-17 SCID female mice) was 4.31 % iD/g. The “% iD/g Stomach” value ([2]; Stomach, 1 h p.i., Jurkat xenograft, CB-17 SCID female mice) was 1.85 % iD/g and the “% iD/g Tumor” value ([2]; Tumor, 1 h p.i., Jurkat xenograft, CB-17 SCID female mice) was 2.41 % iD/g.
In the case of `C[C@@H](NC(=O)[C@@H](CCCNC(=N)N)NC(=O)[C@@H](CN)NC(=O)CN1CCN(CC(=O)O)CCN(CC(=O)O)CCN(CC(=O)O)CC1)C(=O)Nc1ccc(C(=O)NCCC[C@@H]2C(=O)N[C@@H](CCCNC(=N)N)C(=O)N[C@@H](Cc3ccc4ccccc4c3)C(=O)NCC(=O)N[C@H](Cc3ccc(O)cc3)C(=O)N2C)cc1` [CXCR4-DOTA-3 [Lu]] (cyclo([dY][dNMeOrn]([4Abz-dA-dR-dDap-DOTA])R[2Nal]G)), the “Calculated tumor retention 6 h compared to the 1 h-value” ([2]; mouse, in vivo) is reported as 82%, the “Calculated tumor retention 48 h compared to the 1 h-value” ([2]; mouse, in vivo) is reported as 65% and the tissue to tissue ratio [3] is reported as 229. For the same compound, the tissue to tissue ratio at 1 h [3] was 9.25, the tissue to tissue ratio at 48 h [3] was 1360 and the tissue uptake at 1 h ([3]; Tumor activity 1 h p.i.) was 8.42 %ID/g. For the same compound, the tissue uptake at 6 h ([3]; Tumor activity 6 h p.i.) was 6.88 %ID/g, the tissue uptake at 48 h ([3]; Tumor activity 48 h p.i.) was 5.44 %ID/g and the tissue uptake at 1 h ([3]; female, % iD/g Blood) was 0.91 %ID/g. It also gave a tissue uptake at 6 h ([3]; female, % iD/g Blood) of 0.03 %ID/g, a tissue uptake at 1 h ([3]; female, % iD/g Bone) of 0.55 %ID/g and a tissue uptake at 6 h ([3]; female, % iD/g Bone) of 0.28 %ID/g. It also gave a tissue uptake at 48 h ([3]; female, % iD/g Bone) of 0.18 %ID/g, a tissue uptake at 1 h ([3]; female, % iD/g Heart) of 0.53 %ID/g and a tissue uptake at 6 h ([3]; female, % iD/g Heart) of 0.09 %ID/g. For the same compound, the tissue uptake at 48 h ([3]; female, % iD/g Heart) was 0.06 %ID/g, the tissue uptake at 1 h ([3]; female, % iD/g Intestine) was 0.44 %ID/g and the tissue uptake at 6 h ([3]; female, % iD/g Intestine) was 0.44 %ID/g. The tissue uptake at 48 h ([3]; female, % iD/g Intestine) was 0.11 %ID/g, the tissue uptake at 1 h ([3]; female, % iD/g Kidney) was 14.1 %ID/g and the tissue uptake at 6 h ([3]; female, % iD/g Kidney) was 13.4 %ID/g. The tissue uptake at 48 h ([3]; female, % iD/g Kidney) was 4.47 %ID/g, the tissue uptake at 1 h ([3]; female, % iD/g Liver) was 8.48 %ID/g and the tissue uptake at 6 h ([3]; female, % iD/g Liver) was 9.43 %ID/g. It also gave a tissue uptake at 48 h ([3]; female, % iD/g Liver) of 8.84 %ID/g, a tissue uptake at 1 h ([3]; female, % iD/g Lung) of 1.67 %ID/g and a tissue uptake at 6 h ([3]; female, % iD/g Lung) of 0.25 %ID/g. The tissue uptake at 48 h ([3]; female, % iD/g Lung) was 0.14 %ID/g, the tissue uptake at 1 h ([3]; female, % iD/g Muscle) was 0.18 %ID/g and the tissue uptake at 6 h ([3]; female, % iD/g Muscle) was 0.03 %ID/g. For the same compound, the tissue uptake at 48 h ([3]; female, % iD/g Muscle) was 0.01 %ID/g, the tissue uptake at 1 h ([3]; female, % iD/g Pancreas) was 0.28 %ID/g and the tissue uptake at 6 h ([3]; female, % iD/g Pancreas) was 0.09 %ID/g. The tissue uptake at 48 h ([3]; female, % iD/g Pancreas) was 0.05 %ID/g, the tissue uptake at 1 h ([3]; female, % iD/g Spleen) was 1.55 %ID/g and the tissue uptake at 6 h ([3]; female, % iD/g Spleen) was 1.38 %ID/g. It also gave a tissue uptake at 48 h ([3]; female, % iD/g Spleen) of 1.32 %ID/g, a tissue uptake at 1 h ([3]; female, % iD/g Stomach) of 0.94 %ID/g and a tissue uptake at 6 h ([3]; female, % iD/g Stomach) of 0.25 %ID/g. It also gave a tissue uptake at 48 h ([3]; female, % iD/g Stomach) of 0.07 %ID/g, a tissue uptake at 1 h ([3]; female, % iD/g Tumor) of 8.42 %ID/g and a tissue uptake at 6 h ([3]; female, % iD/g Tumor) of 6.88 %ID/g. It also gave a tissue uptake at 48 h ([3]; female, % iD/g Tumor) of 5.44 %ID/g.
